From patent US9828357B2, “Cyclic compounds” (Takeda Pharmaceutical Company Limited, priority 2015, dated 2017)

Key:
[1] = test system: blood TNFα; assay: Effect on blood TNF-α concentration elevation by LPS stimulation; assay type: in vivo; details: female BALB/c mice; 3 mg/kg intravenously 1 h before LPS 5 mg/kg i.p.; serum 1 h after LPS; vs control group
Experimental: Various kinds of cytokines are produced in vivo accompanying inflammatory response and abnormal immunity or the like. Therefore, the action of test compound with respect to blood TNFα concentration rise was investigated using laboratory animals.
Female BALB/c mice (6 weeks old) were purchased, and, after preliminary rearing for about 1 week, the mice were divided into groups of four animals. The test compound was dissolved in 10% captisol aqueous solution and was intravenously administered to the test group at a dose of 3 mg/kg. Solvent was administered to control group in the same way. LPS (5 mg/kg) was administered intraperitoneally to the test group and the control group one hour after the administration of the test compound or solvent, and blood was sampled one hour later. The serum was separated from the obtained blood, and the TNFα[…]concentration in the serum was measured using an assay kit made by R&D Systems Inc. The inhibition rates of the test group with respect to the control group are shown in Table 3.

[2] = test system: liver injury by Galactosamine/LPS stimulation; assay: Action on liver injury by Galactosamine/LPS stimulation (blood plasma ALT); assay type: in vivo; details: BALB/c mice; for ALT amount in the blood plasma: 8 hr, mean ± standard error
Experimental: The action on liver injury by Galactosamine/LPS stimulation was evaluated by elevation of blood alanine transaminase (ALT) amount as an index. Galactosamine (700 mg/kg) and LPS (5 μg/kg) were administered intraperitoneally to BALB/c mice (female, 7 weeks old, Japan Charles River). After 8 hr, the blood was collected in the presence of heparin. The obtained blood was centrifuged (4° C., 10000×rpm, 10 min), and the blood plasma was collected, and the ALT amount in the blood plasma was measured by 7180 type Hitachi automated analytical apparatus (Hitachi High-Technologies Corporation). Compound 6 was dissolved in 10% captisol solution (0.3, 1, 3 mg/kg), and the solution was administered intravenously to the mice in the tail vein 1 hr before Galactosamine/LPS administration.

[3] = test system: TLR4 signal; assay: Inhibitory effect on TNFα production from HMGB-1 stimulated human Kupffer cell; assay type: cell-based; details: human primary Kupffer cells, HMGB-1 10 μg/mL, 24 hr
Experimental: TLR4 signal inhibitory activity in human Kupffer cell was evaluated as an inhibition rate of the test compound for TNFα produced by addition of HMGB-1 (SHINO-TEST), using human primary Kupffer cells (Cat# HUKCCS, Lot#HK8226) purchase from GIBCO. Cell suspension prepared in RPMI 1640-Gluta MAX™ medium supplemented with 10% inactivated bovine fetal serum was plated in 96-well I-type collagen-coated plate so as to contain 3.1×10^4 cells/100 μL/well. Then, the cells were cultured for 6 hr at 37° C. under 5% CO2/95% air to be adhered to the bottom of the plate. The non-adhered cells were rinsed off with PBS, and the test compound dissolved in DMSO was added to the adhered cells (final concentration: 1, 10, 100 nM), and the mixture was cultured for 1 hr. Then, HMGB-1 was added thereto (final concentration: 10 μg/mL), and the mixture was incubated for additional 24 hr. TNFα production amount contained in the culture supernatant was quantified by ELISA method (R&D systems). TNFα production inhibition rate (%) was calculated using the value under the HMGB-1-free condition as control of 100% inhibition and the value under the compound-free condition as control of 0% inhibition.

What does the source list for `CCOC(=O)C1=CC2(CC[C@H]1S(=O)(=O)[C@H]1CCc3cccc(Cl)c31)O[C@H](CO)[C@@H](CO)O2` [Compound 6, Ethyl (2R,3R,8R)-8-(((1S)-7-chloro-2,3-dihydro-1H-inden-1-yl)sulfonyl)-2,3-bis(hydroxymethyl)-1,4-dioxaspiro[4.5]dec-6-ene-7-carboxylate]?
Blood TNFα inhibition rate (% inhibition) [1]: 93.1 % inhibition; ALT amount in the blood plasma ([2]; 0.3 mg/kg i.v. 1 hr before Galactosamine/LPS): 570 ± 94 IU/L; ALT amount in the blood plasma ([2]; 1 mg/kg i.v. 1 hr before Galactosamine/LPS): 361 ± 60 IU/L; ALT amount in the blood plasma ([2]; 3 mg/kg i.v. 1 hr before Galactosamine/LPS): 104 ± 10 IU/L; Effect on the increase in the ALT amount in the blood plasma due to Galactosamine/LPS stimulation (in words) ([2]; 0.3, 1, 3 mg/kg i.v.): dose-dependently and significantly inhibited the increase in the ALT amount; TNFα production inhibition rate (% inhibition) ([3]; compound concentration 1 nM): 45 % inhibition; TNFα production inhibition rate (% inhibition) ([3]; compound concentration 10 nM): 82 % inhibition; TNFα production inhibition rate (% inhibition) ([3]; compound concentration 100 nM): 85 % inhibition
